Measured values reported in ChEMBL document CHEMBL3045726, “Fungicidal Activity of Pyrazolylpyrimidines” (1990).
≈ marks a conversion by molar mass, not a printed value.

What was measured:
Format in all cases: functional
[1] = system: Pyricularia oryzae; assay: Fungicidal activity against Magnaporthe oryzae by agar dilution method
[2] = system: Nakataea oryzae; assay: Fungicidal activity against Magnaporthe salvinii by agar dilution method
[3] = system: Pyricularia oryzae; assay: Fungicidal activity against Magnaporthe oryzae in rice seedlings assessed as control of rice blast at 500 ppm by preventive foliar treatment
[4] = system: Pyricularia oryzae; assay: Fungicidal activity against Magnaporthe oryzae in rice seedlings assessed as control of rice blast at 500 ppm by curative foliar treatment

Structure (SMILES) | MIC [1] | MIC [2] | Activity [3] | Activity [4]
CCNc1nc(NCC)nc(-n2nc(C)cc2C)n1 | 50 mg/L (≈ 191 µM) | 25 mg/L (≈ 95.7 µM) | 100% | 81%
Cc1cc(C)n(C2=NS(=O)(=O)c3ccccc32)n1 | > 100 mg/L | > 100 mg/L | 31% | 0%
Cc1cc(C)n(-c2nc3ccccc3s2)n1 | > 100 mg/L | > 100 mg/L | 40% | 31%
Cc1cc(C)n(-c2nc3ccccc3c(=O)[nH]2)n1 | 0.78 mg/L (≈ 3.25 µM) |  | 40% | 85%
Cc1cc(C)n(-c2ccc(O)nn2)n1 | 100 mg/L (≈ 526 µM) | > 100 mg/L | 29% | 0%
Cc1cc(C)n(-c2ccc(Cl)nn2)n1 | > 100 mg/L | > 100 mg/L | 31% | 31%
Cc1cc(C)n(-c2ncncn2)n1 | > 100 mg/L | > 100 mg/L | 59% | 50%
Cc1cc(C)n(-c2nc(O)nc(O)n2)n1 | > 100 mg/L | > 100 mg/L |  | 31%
Cc1cc(C)n(-c2nc(Cl)nc(Cl)n2)n1 | > 100 mg/L | > 100 mg/L | 100% | 100%
Cc1cc(C)n(-c2nc3ccccc3[nH]2)n1 | 100 mg/L (≈ 471 µM) | 25 mg/L (≈ 118 µM) |  | 0%
Cc1cc(C)n(-c2nc(C)c(C)s2)n1 | > 100 mg/L | > 100 mg/L | 0% | 15%
Cc1nc(-n2nc(C)c(Br)c2C)nc(O)c1Br | 50 mg/L (≈ 138 µM) | 25 mg/L (≈ 69.1 µM) | 40% | 31%
Cc1cc(C)nc(-n2ccnc2)n1 | > 100 mg/L | > 100 mg/L | 51% | 0%
Cc1cc(C)nc(-n2ccnc2C)n1 | > 100 mg/L | > 100 mg/L | 59% | 40%
Cc1cc(C)nc(-n2cc(C)nc2C)n1 | > 100 mg/L | > 100 mg/L | 59% | 0%
Cc1cc(C)nc(-n2cncn2)n1 | > 100 mg/L | > 100 mg/L | 31% | 0%
Cc1cc(C)nc(-n2nc(C)nc2C)n1 | > 100 mg/L | > 100 mg/L | 81% | 0%
Cc1cc(C)n(-c2ccc3ccccc3n2)n1 | 100 mg/L (≈ 448 µM) | 25 mg/L (≈ 112 µM) | 31% | 60%
Cc1cc(C)n(-c2cc(C)c3ccccc3n2)n1 | > 100 mg/L | > 100 mg/L | 81% | 69%
Cc1cc(C)nc(-n2nc(C)c(Br)c2C)n1 | 50 mg/L (≈ 178 µM) | 50 mg/L (≈ 178 µM) | 65% | 96%
Cc1cc(C)n(-c2nc(C)c(Cl)c(C)n2)n1 | 50 mg/L (≈ 211 µM) | 25 mg/L (≈ 106 µM) | 94% | 100%
Cc1cc(C)nc(-n2ccc(C)n2)n1 | > 100 mg/L | > 100 mg/L | 69% | 69%
Cc1cc(C)nc(-n2cccn2)n1 | > 100 mg/L | > 100 mg/L | 41% | 40%
COc1cc(C)nn1-c1nc(C)cc(C)n1 | > 100 mg/L | > 100 mg/L | 40% | 40%
COc1cc(C)nc(-n2nc(C)cc2C)n1 | 50 mg/L (≈ 229 µM) | 100 mg/L (≈ 458 µM) | 81% | 96%
Cc1cc(C)nc(-n2nc(C)cc2-c2ccccc2)n1 | 100 mg/L (≈ 378 µM) |  | 67% | 27%
Cc1cc(C)nc(-n2[nH]c(C)cc2=O)n1 | > 100 mg/L | > 100 mg/L | 31% | 0%
COc1cc(C)nc(-n2nc(C)cc2OC)n1 [EPIRIZOLE] | > 100 mg/L | > 100 mg/L |  | 89%
